# Test results from patent US10076522B2, “Systems and methods for treating bacterial infection” (priority 2016, dated 2018).
# Test: Phase III REVIVE-1 study, safety (adverse events)
# Method: All subjects who received any study drug were evaluated for safety on the basis of medical history and physical examinations, reports of clinical AEs, routine electrocardiography, and clinically significant findings from routine liver function tests, serum chemistry, hematology, coagulation, and urinalysis (UA) tests. All adverse events were recorded throughout the study period, up to and including the LFU phone call. While blinded to treatment assignment, the investigator categorized the severity of each AE and the potential for relationship to study drug. Serious AEs (SAEs) include those that were life threatening, led to prolongation of the existing hospitalization, a congenital anomaly/birth defect, or caused persistent or significant disability, incapacity, or death. Treatment-emergent AEs (TEAEs) were defined as those that start or worsen in severity during or after the first dose of study drug administration through end of study.
# Safety evaluation included incidence of TEAEs, laboratory test results (including liver function tests), vital signs, ECG results, and physical examination findings. All summaries of safety data was based on the safety population (all treated subjects).
# The AE summary tables included subject (patient) counts. Therefore, if a subject experienced more than one episode of a particular AE, the subject was counted only once for that event. If a subject had more than one AE that was coded to the same preferred term, the subject was counted only once for that preferred term. Similarly, if a subject had more than one AE within a SOC, the subject was counted only once in that SOC.
smiles,measurement,setting,value
COc1cc(Cc2cnc(N)nc2N)c2c(c1OC)OC(C1CC1)C=C2 (racemic) [Iclaprim],"Deaths, number of subjects",REVIVE-1 safety population,0
same,"Deaths, percent of subjects",REVIVE-1 safety population,0.0%
same,"Study drug related TEAEs, number of subjects","human, in vivo",57
same,"Study drug related TEAEs, percent of subjects","human, in vivo",19.5%
same,"TEAE-related SAEs (Serious AEs), number of subjects","human, in vivo",8
same,"TEAE-related SAEs (Serious AEs), percent of subjects","human, in vivo",2.7%
same,"TEAEs (Treatment Emergent Adverse Events), number of subjects","human, in vivo",151
same,"TEAEs (Treatment Emergent Adverse Events), percent of subjects","human, in vivo",51.5%
same,"TEAEs leading to discontinuation of study drug, number of subjects","human, in vivo",8
same,"TEAEs leading to discontinuation of study drug, percent of subjects","human, in vivo",2.7%
